The source of these data is patent US20220089598A1, “INHIBITORS OF HUMAN IMMUNODEFICIENCY VIRUS REPLICATION” (VIIV HEALTHCARE UK (No. 5) LIMITED, priority 2018, published 2022).

Bounds are passed on as bounds.

Series [1] concerns recombinant NL4-3 virus (Renilla luciferase) in MT-2 cells. In words: HIV cell culture assay (antiviral activity, luciferase readout). It counts as cell-based. To be noted: Renilla, NL43. As to the method: HIV cell culture assay—MT-2 cells, 293T cells and the proviral DNA clone of NL4-3 virus were obtained from the NIH AIDS Research and Reference Reagent Program. MT-2 cells were propagated in RPMI 1640 media supplemented with 10% heat inactivated fetal bovine serum (FBS), 100 μg/ml penicillin G and up to 100 units/mL streptomycin. The 293T cells were propagated in DMEM media supplemented with 10% heat inactivated FBS, 100 μg/mL penicillin G and 100 μg/mL streptomycin. A recombinant NL4-3 proviral clone, in which a section of the nef gene was replaced with the Renilla luciferase gene, was used to make the reference virus used in these studies. The recombinant virus was prepared through transfection of the recombinant NL4-3 proviral clone into 293T cells using Transit-293 Transfection Reagent from Mirus Bio LLC (Madison, Wis.). Supernatent was harvested after 2-3 days and the amount of virus present was titered in MT-2 cells using luciferase enzyme activity as a marker by measuring luciferase enzyme activity. Luciferase was quantitated using the EnduRen Live Cell Substrate from Promega (Madison, Wis.). Antiviral activities of compounds toward the recombinant virus were quantified by measuring luciferase activity in MT-2 cells infected for 4-5 days with the recombinant virus in the presence of serial dilutions of the compound.
The 50% effective concentration (EC50) was calculated by using the exponential form of the median effect equation where (Fa)=1/[1+(ED50/drug conc.)m] (Johnson V A, Byington R T. Infectivity Assay. In Techniques in HIV Research. ed. Aldovini A, Walker B D. 71-76. New York: Stockton Press. 1990).

Series [2] can be described thus: Compound cytotoxicity, XTT-based colorimetric assay. It counts as cell-based. The settings on record: human; uninfected MT2 cells, day 4, XTT assay. As to the method: Compound cytotoxicity and the corresponding CC50 values were determined using the same protocol as described in the antiviral assay except that uninfected cells were used. Cytotoxicity was assessed on day 4 in uninfected MT2 cells by using a XTT (2,3-bis[2-Methoxy-4-nitro-5-sulfophenyl]-2H-tetrazolium-5-carboxyanilide inner salt)-based colorimetric assay (Sigma-Aldrich, St Louis, Mo.).

The EC50 is the concentration at which the effect is half-maximal. As a reminder, the CC50 is the concentration at which the toxic effect on the cells reaches its halfway point. Consider `COc1c(F)ccc(-c2ccc3c(=O)n(-c4ccc(Cl)c5c(NS(C)(=O)=O)nn(C)c45)c([C@H](Cc4cc(F)cc(F)c4)NC(=O)Cn4nc(C(F)F)c5c4C(F)(F)[C@@H]4C[C@H]54)nc3n2)c1F` (atropisomer, axis not shown; (P)) [Example 26, N—((S)-1-((3P)-3-(4-chloro-1-methyl-3-(methylsulfonamido)-1H-indazol-7-yl)-7-(2,4-difluoro-3-methoxyphenyl)-4-oxo-3,4-dihydropyrido[2,3-d]pyrimidin-2-yl)-2-(3,5-difluorophenyl)ethyl)-2-((3bS,4aR)-3-(difluoromethyl)-5,5-difluoro-3b,4,4a,5-tetrahydro-1H-cyclopropa[3,4]cyclopenta[1,2-c]pyrazol-1-yl)acetamide], for which the EC50 in series [1] is 0.062 nM. Besides, in series [2], the CC50 at 4 day was more than 100 nM.
Turning to `COc1nc2nc([C@H](Cc3cc(F)cc(F)c3)NC(=O)Cn3nc(C(F)F)c4c3C(F)(F)[C@@H]3C[C@H]43)n(-c3ccc(Cl)c4c(NS(C)(=O)=O)nn(C)c34)c(=O)c2cc1-c1ccccc1F` (atropisomer, axis not shown; (P)) [Example 2, N—((S)-1-((3P)-3-(4-chloro-1-methyl-3-(methylsulfonamido)-1H-indazol-7-yl)-6-(2-fluorophenyl)-7-methoxy-4-oxo-3,4-dihydropyrido[2,3-d]pyrimidin-2-yl)-2-(3,5-difluorophenyl)ethyl)-2-((3bS,4aR)-3-(difluoromethyl)-5,5-difluoro-3b,4,4a,5-tetrahydro-1H-cyclopropa[3,4]cyclopenta[1,2-c]pyrazol-1-yl)acetamide], in series [1], the EC50 was 0.25 nM. Besides, the CC50 at 4 day in series [2] is more than 1000 nM.
The like results for `O=C(Cn1nc(C(F)(F)F)c2c1C(F)(F)[C@@H]1C[C@H]21)N[C@@H](Cc1cc(F)cc(F)c1)c1nc2nc(-c3ccccc3F)ccc2c(=O)n1-c1ccc(Cl)c2c(NS(=O)(=O)C3CC3)nn(CC(F)F)c12` (atropisomer, axis not shown; (P)) [Example 7, N—((S)-1-((3P)-3-(4-chloro-3-(cyclopropanesulfonamido)-1-(2,2-difluoroethyl)-1H-indazol-7-yl)-7-(2-fluorophenyl)-4-oxo-3,4-dihydropyrido[2,3-d]pyrimidin-2-yl)-2-(3,5-difluorophenyl)ethyl)-2-((3bS,4aR)-5,5-difluoro-3-(trifluoromethyl)-3b,4,4a,5-tetrahydro-1H-cyclopropa[3,4]cyclopenta[1,2-c]pyrazol-1-yl)acetamide] were, in that order, 0.056 nM and more than 100 nM.
Take `Cn1nc(NS(C)(=O)=O)c2c(Cl)ccc(-n3c([C@H](Cc4cc(F)cc(F)c4)NC(=O)Cn4ccc(C5CC5)n4)nc4nc(-c5ccccc5F)ccc4c3=O)c21` (atropisomer, axis not shown; (P)) [Example 34, (S)—N-(1-((3P)-3-(4-chloro-1-methyl-3-(methylsulfonamido)-1H-indazol-7-yl)-7-(2-fluorophenyl)-4-oxo-3,4-dihydropyrido[2,3-d]pyrimidin-2-yl)-2-(3,5-difluorophenyl)ethyl)-2-(3-cyclopropyl-1H-pyrazol-1-yl)acetamide]: the EC50 in series [1] turned out to be 0.089 nM. The molecule further gave a CC50 at 4 day in series [2] of more than 500 nM.
Consider `Cn1nc(NS(C)(=O)=O)c2c(Cl)ccc(-n3c([C@H](Cc4cc(F)cc(F)c4)NC(=O)Cn4nc(C(F)F)c5c4C(F)(F)[C@@H]4C[C@H]54)nc4nc(-c5cc(Cl)c(F)cc5F)ccc4c3=O)c21` (atropisomer, axis not shown; (P)) [Example 6, N—((S)-1-((3P)-3-(4-chloro-1-methyl-3-(methylsulfonamido)-1H-indazol-7-yl)-7-(5-chloro-2,4-difluorophenyl)-4-oxo-3,4-dihydropyrido[2,3-d]pyrimidin-2-yl)-2-(3,5-difluorophenyl)ethyl)-2-((3bS,4aR)-3-(difluoromethyl)-5,5-difluoro-3b,4,4a,5-tetrahydro-1H-cyclopropa[3,4]cyclopenta[1,2-c]pyrazol-1-yl)acetamide], for which the EC50 in series [1] came out at 0.192 nM. Besides, the CC50 at 4 day in series [2] is more than 100 nM.
For the molecule `Cn1nc(NS(C)(=O)=O)c2c(Cl)ccc(-n3c([C@H](Cc4cc(F)cc(F)c4)NC(=O)Cn4nc(C(F)F)c5c4C(F)(F)[C@@H]4C[C@H]54)nc4nc(-c5ccc(F)c(Cl)c5F)ccc4c3=O)c21` (atropisomer, axis not shown; (P)) [Example 22, N—((S)-1-((3P)-3-(4-chloro-1-methyl-3-(methylsulfonamido)-1H-indazol-7-yl)-7-(3-chloro-2,4-difluorophenyl)-4-oxo-3,4-dihydropyrido[2,3-d]pyrimidin-2-yl)-2-(3,5-difluorophenyl)ethyl)-2-((3bS,4aR)-3-(difluoromethyl)-5,5-difluoro-3b,4,4a,5-tetrahydro-1H-cyclopropa[3,4]cyclopenta[1,2-c]pyrazol-1-yl)acetamide], in series [1], the EC50 was determined as 0.1 nM. In series [2], this molecule gave a CC50 at 4 day of more than 100 nM.
The like results for `Cn1nc(NS(C)(=O)=O)c2c(Cl)ccc(-n3c([C@H](Cc4cc(F)cc(F)c4)NC(=O)Cn4nc(C(F)F)c5c4C(F)(F)[C@@H]4C[C@H]54)nc4nc(-c5ccc(F)c(C#N)c5)ccc4c3=O)c21` (atropisomer, axis not shown; (P)) [Example 30, N—((S)-1-((3P)-3-(4-chloro-1-methyl-3-(methylsulfonamido)-1H-indazol-7-yl)-7-(3-cyano-4-fluorophenyl)-4-oxo-3,4-dihydropyrido[2,3-d]pyrimidin-2-yl)-2-(3,5-difluorophenyl)ethyl)-2-((3bS,4aR)-3-(difluoromethyl)-5,5-difluoro-3b,4,4a,5-tetrahydro-1H-cyclopropa[3,4]cyclopenta[1,2-c]pyrazol-1-yl)acetamide] were, in that order, 0.078 nM and more than 100 nM.
On to `CS(=O)(=O)Nc1nn(CC(F)F)c2c(-n3c([C@H](Cc4cc(F)cc(F)c4)NC(=O)Cn4nc(C(F)F)c5c4C(F)(F)[C@@H]4C[C@H]54)nc4nc(-c5ccccc5F)ccc4c3=O)ccc(Cl)c12` (atropisomer, axis not shown; (P)) [Example 10, N—((S)-1-((3P)-3-(4-chloro-1-(2,2-difluoroethyl)-3-(methylsulfonamido)-1H-indazol-7-yl)-7-(2-fluorophenyl)-4-oxo-3,4-dihydropyrido[2,3-d]pyrimidin-2-yl)-2-(3,5-difluorophenyl)ethyl)-2-((3bS,4aR)-3-(difluoromethyl)-5,5-difluoro-3b,4,4a,5-tetrahydro-1H-cyclopropa[3,4]cyclopenta[1,2-c]pyrazol-1-yl)acetamide], for which the EC50 in series [1] amounted to 0.097 nM. The molecule also gave a CC50 at 4 day in series [2] of more than 100 nM.
The corresponding values for `Cn1nc(NS(C)(=O)=O)c2c(Cl)ccc(-n3c([C@H](Cc4cc(F)cc(F)c4)NC(=O)Cn4nc(C(F)F)c5c4C(F)(F)[C@@H]4C[C@H]54)nc4nc(-c5cccc(S(C)(=O)=O)c5)ccc4c3=O)c21` (atropisomer, axis not shown; (P)) [Example 23, N—((S)-1-((3P)-3-(4-chloro-1-methyl-3-(methylsulfonamido)-1H-indazol-7-yl)-7-(3-(methylsulfonyl)phenyl)-4-oxo-3,4-dihydropyrido[2,3-d]pyrimidin-2-yl)-2-(3,5-difluorophenyl)ethyl)-2-((3bS,4aR)-3-(difluoromethyl)-5,5-difluoro-3b,4,4a,5-tetrahydro-1H-cyclopropa[3,4]cyclopenta[1,2-c]pyrazol-1-yl)acetamide] are 0.065 nM and more than 100 nM.
Regarding `Cn1nc(NS(C)(=O)=O)c2c(Cl)ccc(-n3c([C@H](Cc4cc(F)cc(F)c4)NC(=O)Cn4nc(C(F)F)c5c4C(F)(F)[C@@H]4C[C@H]54)nc4nc(-c5ccc(F)cc5S(C)(=O)=O)ccc4c3=O)c21` (atropisomer, axis not shown; (P)) [Example 19, N—((S)-1-((3P)-3-(4-chloro-1-methyl-3-(methylsulfonamido)-1H-indazol-7-yl)-7-(4-fluoro-2-(methylsulfonyl)phenyl)-4-oxo-3,4-dihydropyrido[2,3-d]pyrimidin-2-yl)-2-(3,5-difluorophenyl)ethyl)-2-((3bS,4aR)-3-(difluoromethyl)-5,5-difluoro-3b,4,4a,5-tetrahydro-1H-cyclopropa[3,4]cyclopenta[1,2-c]pyrazol-1-yl)acetamide], the EC50 in series [1] came to 0.12 nM. In series [2], the CC50 at 4 day was more than 500 nM.
